{
  "source": "PubChem BioAssay AID1224866",
  "about": "(Xiaojiang Lab, Kunming Institute of Botany, CAS, 2016)",
  "experiment_in_all_cases": "TFEB nuclear translocation in HeLa cells, imaging, EGFP fusions (AID 1224866)",
  "key": {"[1]": {"tested_on": "HeLa TFEB-EGFP nuclear translocation, imaging", "conditions": "stronger effect = higher value; dose or concentration not given here"}, "[2]": {"target": "Transcription factor E3 (Homo sapiens) (UniProt P19532)", "conditions": "HeLa; measured here: TFE3 nuclear translocation; stronger effect = higher value; dose or concentration not given here"}, "[3]": {"target": "Zinc finger protein with KRAB and SCAN domains 3 (Homo sapiens) (UniProt Q9BRR0)", "conditions": "HeLa EGFP-ZKSCAN3 cytoplasmic translocation; stronger effect = higher value; dose or concentration not given here"}},
  "data": [
    {"smiles": "CC1=C[C@H]2C(=O)[C@]3(C=C(C)[C@H](OC(=O)c4ccccc4)[C@@]3(O)[C@@H]1O)[C@H](C)C[C@@H]1[C@H]2C1(C)C", "values": [
      {"measurement": "cells with nuclear TFEB-EGFP", "setting": "[1]", "result": 65.8, "unit": "%"},
      {"measurement": "cells with nuclear EGFP-TFE3", "setting": "[2]", "result": 4, "unit": "%"},
      {"measurement": "cells with cytosolic EGFP-ZKSCAN3", "setting": "[3]", "result": 68.4, "unit": "%"}
    ]},
    {"smiles": "CCCCCCCCCCCCCCCC(=O)OCC1=C[C@H]2C(=O)[C@]3(C=C(C)[C@H](O)[C@@]3(O)[C@@H]1O)[C@H](C)C[C@@H]1[C@H]2C1(C)C", "values": [
      {"measurement": "cells with nuclear TFEB-EGFP", "setting": "[1]", "result": 66.6, "unit": "%"},
      {"measurement": "cells with nuclear EGFP-TFE3", "setting": "[2]", "result": 5.1, "unit": "%"},
      {"measurement": "cells with cytosolic EGFP-ZKSCAN3", "setting": "[3]", "result": 74.3, "unit": "%"}
    ]},
    {"smiles": "CC(=O)O[C@@H]1C(C)=C[C@H]2C(=O)[C@]3(C=C(C)[C@H](OC(=O)c4ccccc4)[C@@]13O)[C@H](C)C[C@@H]1[C@H]2C1(C)C", "values": [
      {"measurement": "cells with nuclear TFEB-EGFP", "setting": "[1]", "result": 74.5, "unit": "%"},
      {"measurement": "cells with nuclear EGFP-TFE3", "setting": "[2]", "result": 4.6, "unit": "%"},
      {"measurement": "cells with cytosolic EGFP-ZKSCAN3", "setting": "[3]", "result": 74.1, "unit": "%"}
    ]},
    {"smiles": "CC=C(C)C(=O)O[C@@H]1C(C)=C[C@H]2C(=O)[C@]3(C=C(C)[C@H](OC(C)=O)[C@@]13O)[C@H](C)C[C@@H]1[C@H]2C1(C)C", "values": [
      {"measurement": "cells with nuclear TFEB-EGFP", "setting": "[1]", "result": 70.3, "unit": "%"},
      {"measurement": "cells with nuclear EGFP-TFE3", "setting": "[2]", "result": 4.2, "unit": "%"},
      {"measurement": "cells with cytosolic EGFP-ZKSCAN3", "setting": "[3]", "result": 75, "unit": "%"}
    ]},
    {"smiles": "CC=C(C)C(=O)O[C@@H]1C(C)=C[C@H]2C(=O)[C@]3(C=C(C)[C@H](O)[C@@]13O)[C@H](C)C[C@@H]1[C@H]2C1(C)C", "values": [
      {"measurement": "cells with nuclear TFEB-EGFP", "setting": "[1]", "result": 85.6, "unit": "%"},
      {"measurement": "cells with nuclear EGFP-TFE3", "setting": "[2]", "result": 5.2, "unit": "%"},
      {"measurement": "cells with cytosolic EGFP-ZKSCAN3", "setting": "[3]", "result": 83.6, "unit": "%"}
    ]},
    {"smiles": "CCCCCCCCCCCCCC(=O)OCC1=C[C@H]2C(=O)[C@]3(C=C(C)[C@H](O)[C@@]3(O)[C@@H]1O)[C@H](C)C[C@@H]1[C@H]2C1(C)C", "values": [
      {"measurement": "cells with nuclear TFEB-EGFP", "setting": "[1]", "result": 67.2, "unit": "%"},
      {"measurement": "cells with nuclear EGFP-TFE3", "setting": "[2]", "result": 4.8, "unit": "%"},
      {"measurement": "cells with cytosolic EGFP-ZKSCAN3", "setting": "[3]", "result": 76.4, "unit": "%"}
    ]},
    {"smiles": "CC1=C[C@H]2C(=O)[C@]3(C=C(C)[C@H](O)[C@@]3(O)[C@@H]1OC(=O)c1ccccc1)[C@H](C)C[C@@H]1[C@H]2C1(C)C", "values": [
      {"measurement": "cells with nuclear TFEB-EGFP", "setting": "[1]", "result": 81.3, "unit": "%"},
      {"measurement": "cells with nuclear EGFP-TFE3", "setting": "[2]", "result": 4.2, "unit": "%"},
      {"measurement": "cells with cytosolic EGFP-ZKSCAN3", "setting": "[3]", "result": 79.2, "unit": "%"}
    ]},
    {"smiles": "CC=C(C)C(=O)O[C@H]1C(C)=C[C@]23C(=O)[C@H](C=C(C)[C@@H](O)[C@]12O)[C@H]1[C@@H](C[C@H]3C)C1(C)C", "values": [
      {"measurement": "cells with nuclear TFEB-EGFP", "setting": "[1]", "result": 80.8, "unit": "%"},
      {"measurement": "cells with nuclear EGFP-TFE3", "setting": "[2]", "result": 5.4, "unit": "%"},
      {"measurement": "cells with cytosolic EGFP-ZKSCAN3", "setting": "[3]", "result": 76.9, "unit": "%"}
    ]},
    {"smiles": "CCCCCCCCCCCC(=O)O[C@@]12C[C@@H](C)[C@]34C=C(C)[C@H](OC(=O)C(C)C(C)C)[C@@]3(O)[C@H](O)C(CO)=C[C@@H](C4=O)[C@@H]1C2(C)C", "note": "(stereo not given in full)", "values": [
      {"measurement": "cells with nuclear TFEB-EGFP", "setting": "[1]", "result": 66.1, "unit": "%"},
      {"measurement": "cells with nuclear EGFP-TFE3", "setting": "[2]", "result": 4.3, "unit": "%"},
      {"measurement": "cells with cytosolic EGFP-ZKSCAN3", "setting": "[3]", "result": 69.7, "unit": "%"}
    ]},
    {"smiles": "CCCCCCCCCCCC(=O)O[C@@]12C[C@@H](C)[C@]34C=C(C)[C@H](O)[C@@]3(O)[C@H](O)C(COC(=O)C(C)C(C)C)=C[C@@H](C4=O)[C@@H]1C2(C)C", "note": "(stereo not given in full)", "values": [
      {"measurement": "cells with nuclear TFEB-EGFP", "setting": "[1]", "result": 62, "unit": "%"},
      {"measurement": "cells with nuclear EGFP-TFE3", "setting": "[2]", "result": 3.9, "unit": "%"},
      {"measurement": "cells with cytosolic EGFP-ZKSCAN3", "setting": "[3]", "result": 67.4, "unit": "%"}
    ]}
  ]
}
